ChEMBL document CHEMBL1201862, “PubChem BioAssay data set” (2004)
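96-well plates; 48 h exposure; 5 concentrations. Endpoints by linear interpolation between flanking doses. Not reached: highest tested concentration assigned. GI50: concentration for 50% inhibition of growth.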 Active and inactive are the calls of the source. Cut-off read from the data, not from the text of the source: active = GI50 up to about 1.1 µM and inactive = higher.

How the values were obtained:
Assay in all cases: DTP human tumour cell line panel, 48 h
[1] = test system: IGROV-1
[2] = test system: CCRF-CEM
[3] = test system: T47D
[4] = test system: A498
[5] = test system: RPMI-8226
[6] = test system: NCI-H522
[7] = test system: EKVX
[8] = test system: Hs-578T
[9] = test system: SK-MEL-28
[10] = test system: SNB-19
[11] = test system: HT-29
[12] = test system: SK-MEL-2
[13] = test system: OVCAR-3
[14] = test system: SK-MEL-5
[15] = test system: K562
[16] = test system: SK-OV-3
[17] = test system: BT-549
[18] = test system: 786-0
[19] = test system: HCC 2998

Row | SMILES | GI50 [1] | GI50 [2] | GI50 [3] | GI50 [4] | GI50 [5] | GI50 [6] | GI50 [7] | GI50 [8] | GI50 [9] | GI50 [10] | GI50 [11] | GI50 [12] | GI50 [13] | GI50 [14] | GI50 [15] | GI50 [16] | GI50 [17] | GI50 [18] | GI50 [19]
1 | O=C1/C(=C\Oc2ccc(F)cc2)N2CCC1CC2 | 88.3 µM (inactive) | 34.4 µM (inactive) | 54.6 µM (inactive) | > 100 µM (inactive) | 52.1 µM (inactive) | 50.8 µM (inactive) | 55.5 µM (inactive) | 28.7 µM (inactive) | 87.1 µM (inactive) | 56.6 µM (inactive) | 60.1 µM (inactive) | 61.2 µM (inactive) | > 100 µM (inactive) | 63.5 µM (inactive) | 32.7 µM (inactive) | > 100 µM (inactive) | 55 µM (inactive) | > 100 µM (inactive) | 
2 | CCOC(=O)/C(=N\Nc1ccc(-n2c(C)nc3ccccc3c2=O)cc1)C(C)=O | 22.9 µM (inactive) | 40.3 µM (inactive) | 21 µM (inactive) | 99.3 µM (inactive) | 11.6 µM (inactive) |  | 25.6 µM (inactive) | 20.7 µM (inactive) | 20.3 µM (inactive) | > 100 µM (inactive) | 53.6 µM (inactive) | 54.5 µM (inactive) | 21.7 µM (inactive) | 2.25 µM (inactive) | 32.6 µM (inactive) | 74 µM (inactive) | 33.3 µM (inactive) | > 100 µM (inactive) | 
3 | CC(=O)OCC1OC(N2C(c3ccccc3)=CC(c3ccccc3)C(C#N)=C2S)C(OC(C)=O)C(OC(C)=O)C1OC(C)=O (stereo unspecified) | 18.2 µM (inactive) | > 61.2 µM (inactive) | 3.99 µM (inactive) | 20.2 µM (inactive) | 13.3 µM (inactive) | 7.89 µM (inactive) |  | 3.27 µM (inactive) | 8.95 µM (inactive) | 5.96 µM (inactive) | 2.35 µM (inactive) | 2.27 µM (inactive) | 16.9 µM (inactive) | 1.64 µM (inactive) | 3.76 µM (inactive) |  | 5.57 µM (inactive) | 2.33 µM (inactive) | 25.4 µM (inactive)
4 | CC(=O)c1ccc2c3c1O[C@H]1c4[nH]c5ccccc5c4C[C@@]4(O)[C@@H](C2)N(CC2CC2)CC[C@]314 | 13.6 µM (inactive) | 2.06 µM (inactive) | 19.9 µM (inactive) | 0.333 µM (active) | 18.3 µM (inactive) | 19.1 µM (inactive) | 20.2 µM (inactive) | 0.933 µM (active) | 8.17 µM (inactive) | 0.573 µM (active) | 4.13 µM (inactive) | 16.6 µM (inactive) | 11.4 µM (inactive) | 16 µM (inactive) | 16.8 µM (inactive) | 20.1 µM (inactive) | 14.5 µM (inactive) | 15 µM (inactive) | 
5 | OCc1cccc(Nc2nc(O)c3[nH]cnc3n2)c1 | > 100 µM (inactive) | > 100 µM (inactive) | > 100 µM (inactive) |  | > 100 µM (inactive) | > 100 µM (inactive) | > 100 µM (inactive) | > 100 µM (inactive) | > 100 µM (inactive) | > 100 µM (inactive) | > 100 µM (inactive) | > 100 µM (inactive) | > 100 µM (inactive) | > 100 µM (inactive) | > 100 µM (inactive) | > 100 µM (inactive) | > 100 µM (inactive) | > 100 µM (inactive) | > 100 µM (inactive)
6 | CN(C(=O)Cc1cccc(N=C=S)c1)[C@H]1CCCC[C@@H]1N1CCCC1 | 13.9 µM (inactive) | 12.5 µM (inactive) | 11.4 µM (inactive) | 17.2 µM (inactive) | 10.9 µM (inactive) | 12.9 µM (inactive) | 18.1 µM (inactive) | 25.3 µM (inactive) | 16.1 µM (inactive) | 20.6 µM (inactive) | 11.5 µM (inactive) | 18.7 µM (inactive) | 14.1 µM (inactive) | 5.73 µM (inactive) | 7.59 µM (inactive) | 25.5 µM (inactive) | 11 µM (inactive) | 15.1 µM (inactive) | 
7 | Nc1nc(=O)n(C2CC(O)C(CO)O2)c2nc(-c3ccc(-c4ccccc4)cc3)cnc12 (stereo unspecified) | > 100 µM (inactive) | 27.6 µM (inactive) | 18.6 µM (inactive) | > 100 µM (inactive) | > 100 µM (inactive) | 22.1 µM (inactive) | 96.4 µM (inactive) | 36.3 µM (inactive) |  | 29 µM (inactive) | > 100 µM (inactive) | 44.6 µM (inactive) |  | 15.9 µM (inactive) | 38 µM (inactive) | > 100 µM (inactive) | > 100 µM (inactive) | 40.1 µM (inactive) | 41.9 µM (inactive)
8 | COC(=O)Cc1c(/C=C/C(C)(C)n2cnc(CCN3C(=O)CCC3=O)c2)[nH]c2ccccc12 | > 100 µM (inactive) | 40.4 µM (inactive) | 22.3 µM (inactive) | > 100 µM (inactive) |  | 43.4 µM (inactive) | 13.7 µM (inactive) | 43.7 µM (inactive) | > 100 µM (inactive) | > 100 µM (inactive) | 35.4 µM (inactive) | > 100 µM (inactive) | > 100 µM (inactive) | 66.8 µM (inactive) | > 100 µM (inactive) | > 100 µM (inactive) | > 100 µM (inactive) | > 100 µM (inactive) | 
9 | CSC(=O)/C=C1\SS/C(=C\C(=O)SC)S1 | 3.37 µM (inactive) | 1.88 µM (inactive) | 5.83 µM (inactive) | 7.89 µM (inactive) | 1.55 µM (inactive) | 2.39 µM (inactive) | 2.4 µM (inactive) | 3.05 µM (inactive) | 2.42 µM (inactive) | 6.92 µM (inactive) | 2.47 µM (inactive) | 2.15 µM (inactive) | 2.99 µM (inactive) | 2.65 µM (inactive) | 2.79 µM (inactive) |  | 1.69 µM (inactive) | 1.85 µM (inactive) | 1.8 µM (inactive)
10 | c1ccc(NCCSc2nc3ccccc3s2)cc1 | > 100 µM (inactive) | 14.8 µM (inactive) | 36.2 µM (inactive) | 26.5 µM (inactive) | 26.5 µM (inactive) | 37.2 µM (inactive) | 29.5 µM (inactive) | > 100 µM (inactive) | > 100 µM (inactive) | > 100 µM (inactive) | 30.5 µM (inactive) | 30.8 µM (inactive) | 88.3 µM (inactive) | 21.5 µM (inactive) | 34 µM (inactive) | > 100 µM (inactive) | 34.8 µM (inactive) | 37.6 µM (inactive) | 
11 | N#Cc1c(N)nc(S)c(C#N)c1-c1ccccc1 | > 100 µM (inactive) | > 100 µM (inactive) | > 100 µM (inactive) | > 100 µM (inactive) | > 100 µM (inactive) | 47.3 µM (inactive) | > 100 µM (inactive) | > 100 µM (inactive) | > 100 µM (inactive) | > 100 µM (inactive) | > 100 µM (inactive) | 82.4 µM (inactive) | > 100 µM (inactive) | > 100 µM (inactive) | > 100 µM (inactive) |  | 54 µM (inactive) | > 100 µM (inactive) | > 100 µM (inactive)
12 | S=C(N1CCN(c2cccc(Cl)c2)CC1)N1CCN(c2cccc(Cl)c2)CC1 | 42.6 µM (inactive) | 5.71 µM (inactive) | 16.9 µM (inactive) |  | 34.6 µM (inactive) | 26.9 µM (inactive) | 35 µM (inactive) | 18.6 µM (inactive) | 42.9 µM (inactive) | 39.7 µM (inactive) | 28.8 µM (inactive) | > 100 µM (inactive) | 47 µM (inactive) | 34.2 µM (inactive) | 33 µM (inactive) | > 100 µM (inactive) | 75.3 µM (inactive) | 33.3 µM (inactive) | 17.5 µM (inactive)
13 | COc1ccc2c(c1)N(CCC1CCCCN1C)c1ccccc1S2 (stereo unspecified) [OXYRIDAZINE] | 12.5 µM (inactive) | 10.1 µM (inactive) | 10.8 µM (inactive) | 10.8 µM (inactive) | 12.4 µM (inactive) | 13.1 µM (inactive) | 19.4 µM (inactive) | 10.3 µM (inactive) | 3.58 µM (inactive) | 15.2 µM (inactive) | 5.12 µM (inactive) | 14.7 µM (inactive) | 15.6 µM (inactive) | 10.8 µM (inactive) | 4.37 µM (inactive) | 16.3 µM (inactive) | 16.1 µM (inactive) | 13.1 µM (inactive) | 
14 | CN(C)c1ccc(/C=c2/c3ccccc3n3c2cc(NC(=O)NCCC[N+](C)(C)C)[n+]3C)cc1 | 16.4 µM (inactive) | 0.452 µM (active) | 6.41 µM (inactive) | > 100 µM (inactive) | 22.9 µM (inactive) | 29.4 µM (inactive) | > 100 µM (inactive) | > 100 µM (inactive) | > 100 µM (inactive) | 64.1 µM (inactive) | > 100 µM (inactive) | > 100 µM (inactive) | 45.4 µM (inactive) | 47.6 µM (inactive) | 40.6 µM (inactive) | > 100 µM (inactive) | > 100 µM (inactive) | > 100 µM (inactive) | 
15 | Cc1cc(=O)oc2c(C)c3oc(CBr)cc3cc12 | 16.8 µM (inactive) | 14.4 µM (inactive) | 17.3 µM (inactive) |  | 12.2 µM (inactive) | 15.2 µM (inactive) | 26.4 µM (inactive) | 35.6 µM (inactive) | 19.8 µM (inactive) | 29 µM (inactive) | 27.4 µM (inactive) | 24.5 µM (inactive) | 35.7 µM (inactive) | 13.2 µM (inactive) | 19.9 µM (inactive) | 27.4 µM (inactive) | 15.3 µM (inactive) | 16.3 µM (inactive) | 15.8 µM (inactive)
